Laboratory results: EP4603105A1, “PHARMACEUTICAL COMPOSITION CONTAINING CYCLIC COMPOUND HAVING SELECTIVE KRAS INHIBITORY EFFECT AGAINST HRAS AND NRAS” (CHUGAI SEIYAKU KABUSHIKI KAISHA, priority 2022, dated 2024)
pIC50: −log10 of the molar value. *1 amine or outer side, *2 acyl side, *3 side chain or, on linkers, in order; H or OH if unused. Where a SMILES comes first, the peptide text is derived from it. Bridges are numbered along the chain shown (N, C = ends). [ ]: non-standard residue; d: D form. The star is where a group is joined. hPhe(3-Cl-4-CF3) = N[C@@H](CCc1ccc(C(F)(F)F)c(Cl)c1)C(=O)O; X12 = C=CCN([C@@H](Cc1ccc(C(F)(F)F)cc1)C(=O)[*:2])[*:1]; NMeGly(cPent) = CN[C@H](C(=O)O)C1CCCC1; NMeD = CN[C@@H](CC(=O)O)C(=O)O; NMeL = CN[C@@H](CC(C)C)C(=O)O; Morpholide = C1CN(*)CCO1; NMeA = CN[C@@H](C)C(=O)O; Ac5c = NC1(C(=O)O)CCCC1; Aze = O=C(O)[C@@H]1CCN1; Sar = CNCC(=O)O

Tests used:
[1] = molecular target: HRAS wild-type protein (Homo sapiens, UniProt P01112); test: Binding to HRAS by surface plasmon resonance (SPR), KD and KD ratio to KRAS
Procedure, shortened: (§1)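 Running buffer contained 10 µM GDP and 10 mM MgCl2 to keep RAS in the GDP state, with 4% DMSO at pH 7.4. Compounds were flowed at 100 µL/min in 75 s steps of rising concentration over captured biotin-Avi RAS at 30°C. Sensorgrams were fitted 1:1 for KD.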

[2] = molecular target: GDP-bound NRAS wild-type protein (Homo sapiens, UniProt P01111); test: Binding to NRAS by surface plasmon resonance (SPR), KD and KD ratio to KRAS
Procedure, shortened: as §1

[3] = test system: human lung cancer strain NCI-H441; assay type: cell-based
Procedure, shortened: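 Step one: dispense the test compound in serial DMSO dilutions. Step three: add the reagent and measure […].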

[4] = ratio of KD for HRAS wild-type protein to KD for KRAS
[5] = ratio of KD for GDP-bound NRAS wild-type protein to KD for KRAS

HRAS wild-type protein, sequence (P01112 whole entry): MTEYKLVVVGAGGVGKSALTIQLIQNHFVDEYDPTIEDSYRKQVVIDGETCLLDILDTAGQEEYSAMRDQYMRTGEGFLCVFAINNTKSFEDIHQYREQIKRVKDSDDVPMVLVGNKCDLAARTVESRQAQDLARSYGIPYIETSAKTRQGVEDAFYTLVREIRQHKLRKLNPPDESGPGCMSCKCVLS
GDP-bound NRAS wild-type protein, sequence (P01111 whole entry): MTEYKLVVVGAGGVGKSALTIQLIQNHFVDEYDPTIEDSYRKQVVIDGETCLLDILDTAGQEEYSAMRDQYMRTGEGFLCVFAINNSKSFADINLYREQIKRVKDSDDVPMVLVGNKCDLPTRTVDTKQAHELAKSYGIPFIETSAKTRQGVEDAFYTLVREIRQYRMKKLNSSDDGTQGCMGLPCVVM

SMILES	pIC50 [3]	HRAS /KRAS [1, 4]	NRAS /KRAS [2, 5]	other results
CCO[C@H]1CCN2C(=O)[C@H](CCc3cc(F)c(C(F)(F)F)c(F)c3)NC(=O)CN(C)C(=O)[C@H](Cc3ccc(C(F)(F)F)cc3)N3CCCCC[C@@H](C3=O)N(C)C(=O)CN(C)C(=O)[C@H]([C@@H](C)CC)NC(=O)[C@H](CC(C)C)N(C)C(=O)C[C@@H](C(=O)N3CCOCC3)N(C)C(=O)[C@H](C3CCCC3)N(C)C(=O)C3(CCC3)NC(=O)[C@H]12 [PP1068]	6.92	B (a compound having 3 or more and less than 10 is denoted as B)	A (a compound having 10 or more and less than 20 is denoted as A)	
CCO[C@@H]1C[C@H]2C(=O)NC3(CC(C)(C)C3)C(=O)N(C)[C@@H](C3CCCC3)C(=O)N(C)[C@H](C(=O)N(C)CC)CC(=O)N(C)[C@@H](CC(C)C)C(=O)N[C@@H]([C@@H](C)CC)C(=O)N(C)CC(=O)N(C)[C@H]3C/C=C\CCN(C3=O)[C@@H](Cc3ccc(C(F)F)cc3)C(=O)N(C)CC(=O)N[C@@H](CCc3ccc(C(F)(F)F)c(Cl)c3)C(=O)N2C1 [PP2829]	8.10	A (a compound having 10 or more and less than 20 is denoted as A)	A (a compound having 10 or more and less than 20 is denoted as A)	
CCO[C@@H]1C[C@H]2C(=O)NC3(CCC3)C(=O)N(C)[C@@H](C3CCCC3)C(=O)N(C)[C@H](C(=O)N(C)CCOC)CC(=O)N(C)[C@@H](CC(C)C)C(=O)N[C@@H]([C@@H](C)CC)C(=O)N(C)CC(=O)N(C)[C@H]3C/C=C\CCN(C3=O)[C@@H](Cc3ccc(C(F)(F)F)cc3)C(=O)N(C)CC(=O)N[C@@H](CCc3ccc4sccc4c3)C(=O)N2C1 [PP1325]	7.37			HRAS /KRAS ([1]; ratio of KD with respect to HRAS wild-type protein to KD with respect to KRAS): A (a compound having 10 or more and less than 20 is denoted as A); NRAS /KRAS ([2]; ratio of KD with respect to GDP-bound NRAS wild-type protein to KD with respect to KRAS): A (a compound having 10 or more and less than 20 is denoted as A)
CCC[C@H]1C(=O)N[C@@H]([C@@H](C)CC)C(=O)N(C2CC2)CC(=O)N(C)[C@H]2C/C=C\CCN(C2=O)[C@@H](Cc2ccc(C(F)(F)F)cc2)C(=O)N(C)CC(=O)N[C@@H](CCc2ccc(C(F)(F)F)c(OC)c2)C(=O)N2C[C@H](OCC)C[C@H]2C(=O)N(C)C2(CCC2)C(=O)N(C)[C@@H](C(CC)CC)C(=O)N(C)[C@H](C(=O)N(C)C)CC(=O)N1C [PP2313]	8.13			HRAS /KRAS ([1]; ratio of the KD value with respect to HRAS wild-type protein to the KD value with respect to KRAS): A (a compound having 10 or more and less than 20 is denoted as A); NRAS /KRAS ([2]; ratio of the KD value with respect to GDP-bound NRAS wild-type protein to the KD value with respect to KRAS): AA (a compound having 20 or more is denoted as AA)
C=CCN1C(=O)[C@@H]2CCN2C(=O)[C@H](C)N(C)C(=O)[C@H]([C@@H](C)CC)NC(=O)[C@H](CC(C)C)N(C)C(=O)C[C@@H](C(=O)N2CCOCC2)N(C)C(=O)[C@H](C2CCCC2)N(C)C(=O)C2(CCCC2)NC(=O)[C@@H]2CCCN2C(=O)[C@H](CCc2ccc(C(F)(F)F)c(Cl)c2)NC(=O)CN(C)C(=O)[C@@H]1Cc1ccc(C(F)(F)F)cc1 [PP0114] ([NMeL]I[NMeA][Aze][X12][Sar][hPhe(3-Cl-4-CF3)]P[Ac5c][NMeGly(cPent)][NMeD]-Morpholide; lactam N-11)	8.21	C (A compound having a KD ratio of 0.1 or more and less than 3 is denoted as C)	C (A compound having a KD ratio of 0.1 or more and less than 3 is denoted as C)	
CCC[C@H]1C(=O)N[C@@H]([C@@H](C)CC)C(=O)N(C)CC(=O)N(C)[C@H]2C/C=C\CCN(C2=O)[C@@H](Cc2ccc(C)cc2)C(=O)N(C)CC(=O)N[C@@H](CCc2ccc3c(C)c(C)n(C)c3c2)C(=O)N2C[C@H](OCC)C[C@H]2C(=O)NC2(CC(C)(C)C2)C(=O)N(C)[C@@H](C2CCCC2)C(=O)N(C)[C@H](C(=O)N(C)C)CC(=O)N1C [PP2895]	7.23	A (a compound having 10 or more and less than 20 is denoted as A)	A (a compound having 10 or more and less than 20 is denoted as A)	

The next lines start with results.

pIC50 [3]	SMILES	HRAS /KRAS [1, 4]	NRAS /KRAS [2, 5]	other results
7.42	CCO[C@@H]1C[C@H]2C(=O)NC3(CCCC3)C(=O)N(C)[C@@H](C3CCCC3)C(=O)N(C)[C@H](C)CC(=O)N(C)[C@@H](CC(C)C)C(=O)N[C@@H]([C@@H](C)CC)C(=O)N(C)CC(=O)N(C)[C@H]3C/C=C\CCN(C3=O)[C@@H](Cc3ccc(C(F)(F)F)cc3)C(=O)N(C)CC(=O)N[C@@H](CCc3cc(F)c(C(F)(F)F)c(F)c3)C(=O)N2C1 [PP1096]	B (a compound having 3 or more and less than 10 is denoted as B)	B (a compound having 3 or more and less than 10 is denoted as B)	
7.75	CCO[C@@H]1C[C@H]2C(=O)NC3(CCC3)C(=O)N(C)[C@@H](C3CCCC3)C(=O)N(C)[C@H](C(=O)N3CCC3)CC(=O)N(C)[C@@H](CC)C(=O)N[C@@H]([C@@H](C)CC)C(=O)N(C)CC(=O)N(C)[C@H]3C/C=C\CCN(C3=O)[C@@H](Cc3ccc(C(F)(F)F)cc3)C(=O)N(C)CC(=O)N[C@@H](CCc3cc(F)c(C(F)(F)F)c(F)c3)C(=O)N2C1 [PP1091]	B (a compound having 3 or more and less than 10 is denoted as B)	A (a compound having 10 or more and less than 20 is denoted as A)	
7.35	CCO[C@@H]1C[C@H]2C(=O)NC3(CCCC3)C(=O)N(C)[C@@H](C3CCCC3)C(=O)N(C)[C@H](C(=O)N(C)C)CC(=O)N(C)[C@@H](C)C(=O)N[C@@H]([C@@H](C)CC)C(=O)N(C)CC(=O)N(C)[C@H]3C/C=C\CCN(C3=O)[C@@H](Cc3ccc(C(F)(F)F)cc3)C(=O)N(C)CC(=O)N[C@@H](CCc3cc(F)c(C(F)(F)F)c(F)c3)C(=O)N2C1 [PP1104]	A (a compound having 10 or more and less than 20 is denoted as A)	A (a compound having 10 or more and less than 20 is denoted as A)	
7.85	CCO[C@@H]1C[C@H]2C(=O)NC3(CC(C)(C)C3)C(=O)N(C)[C@@H](C3CCCC3)C(=O)N(C)[C@H](C(=O)N(C)CC)CC(=O)N(C)[C@@H](CC)C(=O)N[C@@H]([C@@H](C)CC)C(=O)N(C)CC(=O)N(C)[C@H]3C/C=C\CCN(C3=O)[C@@H](Cc3ccc(C(F)(F)F)cc3)C(=O)N(C)CC(=O)N[C@@H](CCc3ccc(Cl)c(Cl)c3)C(=O)N2C1 [PP2822]	A (a compound having 10 or more and less than 20 is denoted as A)	A (a compound having 10 or more and less than 20 is denoted as A)	
7.07	CCC[C@H]1C(=O)N[C@@H]([C@@H](C)CC)C(=O)N(C2CC2)CC(=O)N(C)[C@H]2C/C=C\CCN(C2=O)[C@@H](Cc2ccc(C(F)(F)F)cc2)C(=O)N(C)CC(=O)N[C@@H](CCc2cc(F)c(C(F)(F)F)c(F)c2)C(=O)N2C[C@H](OCC)C[C@H]2C(=O)NC2(CC(C)(C)C2)C(=O)N(C)[C@@H](CC2CC2)C(=O)N(C)[C@H](C(=O)N(C)C)CC(=O)N1C [PP2813]	A (a compound having 10 or more and less than 20 is denoted as A)	AA (a compound having 20 or more is denoted as AA)	
6.84	CCO[C@@H]1C[C@H]2C(=O)NC3(CC(C)(C)C3)C(=O)N(C)[C@@H](C(CC)CC)C(=O)N(C)[C@H](C3CCC3)CC(=O)N(C)[C@@H](CC3CC3)C(=O)N[C@@H]([C@@H](C)CC)C(=O)N(C)CC(=O)N(C)[C@H]3C/C=C\CCN(C3=O)[C@@H](Cc3ccc(C(F)(F)F)cc3)C(=O)N(C)CC(=O)N[C@@H](CCc3cc(F)c(C(F)(F)F)c(F)c3)C(=O)N2C1 [PP1634]			HRAS /KRAS ([1]; ratio of KD value for HRAS wild-type protein to KD value for KRAS (SPR)): A (a compound having 10 or more and less than 20 is denoted as A); NRAS /KRAS ([2]; ratio of KD value for GDP-bound NRAS wild-type protein to KD value for KRAS (SPR)): A (a compound having 10 or more and less than 20 is denoted as A)
